# Experimental data published in patent publication US20070155755A1, “N-arylshydroxyalkylidene-carboxamide compositions and methods” (priority 2004, published 2007).
# Key:
# skin of the upper lip = assay: Cooling sensation bioassay, ointment applied to skin above the upper lip (philtrum); type: in vivo, human; conditions: for duration of action (in words): application to the skin of test subjects; for duration of action, cooling on the skin of the upper lip (FIG. 1 legend): in Aquaphor ointment, concentration not given; for quality of sensation and duration (coolness not cold, duration at least three hours): philtrum method of testing; for duration of action, cooling on the skin of the upper lip: 0.5% wt/vol in Aquaphor ointment
# From the text: A reliable place for topical application is on the upper lip, above the vermillion border of the lips, on the philtrum, lateral to the philtrum until the nasolabial folds, and on the lower nostrils. This part of the face is known to be densely innervated with cold receptors, second only to the surface of eyeball. Tingling, cool and cold sensations may be experienced and rated for intensity. This test is quite accurate for predicting the cooling activity of candidate N-arylshydroxyalkylidene-cCarboxamide drugs, but most importantly, it also measures the duration of drug action on the sensory receptors. The duration of action is not measured in a receptor assay and is difficult to quantify on the tongue because of the dynamic fluid conditions in the oral cavity and the presence of taste factors that affect thermosensation.
# Bioassay Procedures For bioassay of CPS-195 on the skin, CPS-195 was stirred and dissolved in warm liquid Aquaphor® ointment to yield ointment concentrations of 0.25, 0.5, 1 and 2% wt/vol. After cooling, 50 to 80 mg of the solid ointment was placed on the tip of a plastic stick and applied to the skin above the upper lip, on the philtrum, and lateral to the philtrum up to the nasolabial folds, of test subjects and the onset and duration of cooling sensations recorded.
# The intensity of the subjective skin sensation is rated as 0, 1, 2 or 3 with: 0 as no change, 1 as slight coolness, cold, or tingling, 2 as clear cut signal of coolness, cold, or tingling, and 3 as robust cooling or cold. The interval for recording sensations is at 5 min intervals, until two successive zeroes are obtained. The results are averaged values of 4 to 6 separate trials in the same individual. The data are plotted using SigmaPlot (Systat Software, Point Richmond Calif.) and a smoothing function with a negative exponential was used for analysis and statistical fit of the results.
# The onset of drug action is taken as the time to reach 2 units of coolness intensity, and offset of drug action is the time when coolness intensity drops below 1.5, after previously surpassing 2 units. The duration of cooling action is defined as the offset time minus the onset time, which in this case averaged […]. The quality of the sensation is also noted, such as refreshing coolness, cold, or if the sensation is accompanied by irritation (stinging or burning). The quality of the sensation is not rated for intensity.
# [1] = system: dorsal surface of the tongue; assay: Cooling sensation after placement on the dorsal surface of the tongue; type: in vivo, human; conditions: 2 mg on dorsal surface of the tongue
# Experimental: The onset of cooling was 3 to 5 min, but once the effect was established, the entire oral cavity and pharyngeal surfaces (oro-, laryngo- and naso-pharynx) felt cool.
# [2] = system: throat irritation and cough; assay: Ludipress tablet on the tongue in an individual with throat irritation and cough; type: in vivo, human; conditions: 3% wt/wt tablet in Ludipress, 60 mg (1.8 mg CPS-195)
# Experimental: CPS-195 was formulated as a 3% wt/wt tablet in Ludipress®, a rapidly disintegrating direct compression excipient made by BASF Corp. The tablet size was 60 mg so each unit contained 1.8 mg of CPS-195. […] For example, applied onto the mucous membranes of the oral cavity it can soothe the discomforts of pharyngitis/laryngitis, oral mucositis, oral ulcers, and idiopathic facial pain. In the pharynx and upper airways, CPS-195 may be used to reduce or to treat cough, asthma, and chronic obstructive pulmonary disease. On the skin, CPS-195 can be used to treat the discomfort of severe acne, eczema, diabetic ulcers, and the like.
# TRP-M8 receptor = target: T1, TRP-M8 receptor (Homo sapiens, UniProt Q7Z2W7); assay: TRP-M8 receptor assay; type: cell-based
# T1 construct: expressed in transfected cells
# T1 sequence (Q7Z2W7 whole entry): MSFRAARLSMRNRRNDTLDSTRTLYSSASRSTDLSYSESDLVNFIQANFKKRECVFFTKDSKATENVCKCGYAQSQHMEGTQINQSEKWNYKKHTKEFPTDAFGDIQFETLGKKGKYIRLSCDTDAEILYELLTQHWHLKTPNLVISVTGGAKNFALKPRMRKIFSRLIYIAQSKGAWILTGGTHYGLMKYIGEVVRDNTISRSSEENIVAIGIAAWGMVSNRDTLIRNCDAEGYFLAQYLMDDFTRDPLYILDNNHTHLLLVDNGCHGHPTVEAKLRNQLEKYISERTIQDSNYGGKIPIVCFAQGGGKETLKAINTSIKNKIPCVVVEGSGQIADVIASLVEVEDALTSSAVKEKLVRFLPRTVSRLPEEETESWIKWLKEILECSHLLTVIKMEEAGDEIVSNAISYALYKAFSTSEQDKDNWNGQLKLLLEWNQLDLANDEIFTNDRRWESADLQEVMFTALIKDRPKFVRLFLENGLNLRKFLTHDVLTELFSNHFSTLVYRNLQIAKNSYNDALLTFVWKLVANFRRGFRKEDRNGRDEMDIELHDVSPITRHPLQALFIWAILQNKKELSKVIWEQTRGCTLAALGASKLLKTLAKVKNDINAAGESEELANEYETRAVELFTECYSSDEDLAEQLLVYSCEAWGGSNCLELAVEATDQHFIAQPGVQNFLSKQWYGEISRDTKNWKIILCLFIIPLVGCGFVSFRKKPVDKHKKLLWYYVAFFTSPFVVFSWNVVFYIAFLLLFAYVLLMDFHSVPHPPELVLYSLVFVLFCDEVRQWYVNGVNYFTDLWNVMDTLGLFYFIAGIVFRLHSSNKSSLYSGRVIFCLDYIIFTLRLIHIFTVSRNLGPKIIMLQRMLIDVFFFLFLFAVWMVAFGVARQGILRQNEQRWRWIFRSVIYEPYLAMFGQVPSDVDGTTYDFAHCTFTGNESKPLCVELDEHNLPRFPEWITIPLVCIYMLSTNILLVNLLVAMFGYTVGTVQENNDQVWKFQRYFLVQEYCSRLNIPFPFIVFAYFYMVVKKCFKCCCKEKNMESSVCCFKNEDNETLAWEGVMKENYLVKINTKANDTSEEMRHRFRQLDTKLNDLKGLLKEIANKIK
# From the text: Tests for Activities of New Compounds. Pain was defined by Sir Charles Sherrington as “the psychic adjunct of an imperative protective reflex”. Psychic events such as cooling, irritation, itch, and pain cannot be expressed by animals (animals cannot say “ouch” or that “it itches”) so the sensory effects of chemicals must be indirectly inferred. Receptor assays, based on cells transfected with the gene for TRP-M8 or TRP-A1, may be used as a model of sensory processes. […] The best information on the pharmacological properties of these chemicals must therefore be derived from human experiment.
structure (smiles),measurement,setting,value
"CC1CCC(C(C)C)C(O)C1 (single isomer, unassigned; (-)) [(−)-menthol, reference compound]",duration of action (in words),skin of the upper lip,active for less than one hour
"CC(C)[C@@H]1CC[C@@H](C)C[C@H]1C(=O)N(C)CC(O)c1cccc(O)c1 (stereo in doubt) [CPS-195, 2-Isopropyl-5-methyl-cyclohexanecarboxylic acid [2′-hydroxy-2′-(3″-hydroxy-phenyl)-ethyl]-N-methyl-amide]","duration of action, coolness and cold on the skin of the upper lip",skin of the upper lip; 0.25% wt/vol in Aquaphor ointment,1.2 h
same,"duration of action, coolness and cold on the skin of the upper lip",skin of the upper lip; 1% wt/vol in Aquaphor ointment,2.4 h
same,"duration of action, coolness and cold on the skin of the upper lip",skin of the upper lip; 2% wt/vol in Aquaphor ointment,5.2 h
same,"duration of action, cooling on the skin of the upper lip (FIG. 1 legend)",skin of the upper lip,more than 1 hr
same,"potency compared to CPS-179, CPS-190 and CPS-192",skin of the upper lip; upper lip ointment test,most potent
same,onset of cooling,[1],3 to 5 min
same,duration of antitussive effect,[2],24 h
same,effect on throat irritation,[2],reduced throat irritation
CC(C)[C@@H]1CC[C@@H](C)C[C@H]1C(=O)Nc1ccc(S(=O)(=O)Nc2ncccn2)cc1 [CPS-125],"quality of sensation and duration (coolness not cold, duration at least three hours)",skin of the upper lip,qualitative aspects of sensation are met
"CC(=O)c1ccc(C(CO)CNC(=O)[C@@H]2C[C@H](C)CC[C@H]2C(C)C)cc1 (stereo partly shown) [CPS-179, 2-Isopropyl-5-methyl-cyclohexanecarboxylic acid [2′-(4″-acetyl-phenyl)-3′-hydroxy-propyl]-amide]","duration of action, cooling on the skin of the upper lip",skin of the upper lip,more than 1 hr
same,"duration of action, cooling on the skin of the upper lip (FIG. 1 legend)",skin of the upper lip,more than 1 hr
CC1CCC(C(C)C)C(C(=O)N(C)CC(O)c2ccc(O)c(O)c2)C1 (stereo not shown) [CPS-190],"duration of action, cooling on the skin of the upper lip",skin of the upper lip,more than 1 hr
same,"duration of action, cooling on the skin of the upper lip (FIG. 1 legend)",skin of the upper lip,more than 1 hr
CC1CCC(C(C)C)C(C(=O)NCC(O)c2cccc(O)c2)C1 (stereo not shown) [CPS-192],"duration of action, cooling on the skin of the upper lip",skin of the upper lip,more than 1 hr
same,"duration of action, cooling on the skin of the upper lip (FIG. 1 legend)",skin of the upper lip,more than 1 hr
"CCOC(=O)CNC(=O)[C@@H]1C[C@H](C)CC[C@H]1C(C)C [WS-5, reference compound]",duration of action (in words),skin of the upper lip,active for less than one hour
"COc1ccc(NC(=O)[C@@H]2C[C@H](C)CC[C@H]2C(C)C)cc1 [WS-12, reference compound]",end of action,skin of the upper lip; 2% preparation,dissipated at the end of one hour
same,time at which duration of action peaks,skin of the upper lip; 2% preparation,30 min
same,sensation elicited,skin of the upper lip; applied at 1 to 2% to the philtrum and its environs,strong cold sensations
same,"quality of sensation and duration (coolness not cold, duration at least three hours)",skin of the upper lip,"sensations of cold, but of brief duration"
same,activity on the TRP-M8 receptor assay,TRP-M8 receptor,active at sub-micromolar concentrations
